Source: BindingDB's records for patent US20230271964 (AstraZeneca, 2023)

Columns and labels:
Adenosine receptor A2a = Adenosine receptor A2a (Homo sapiens, UniProt P29274); assay: Adenosine Receptor Binding Assay
Method: (§1) Inhibition binding assays were performed using 0.2 µg of membranes prepared from HEK293 cells infected with BacMam human adenosine A2A receptor or 1.4 µg of membranes prepared from HEK293 cells infected with BacMam human adenosine A1 receptor. Membranes were incubated in 50 mM Tris-HCl (HEK293-hA2A; pH 7.4) or 50 mM Tris-HCl, 100 mM NaCl, 10 mM MgCl2 (CHO-hA1; pH 7.4) in the presence of varying concentrations of test compound and 1 nM [3H]ZM241385 (HEK293-hA2A) or [3H]DPCPX (CHO-hA1) at 25° C. for 1 h. The assay was then terminated by rapid filtration onto GF/B grade Unifilter plates using a TomTec cell harvester, followed by 5 × 0.5 ml washes with ddH2O. […] Bound radioactivity was determined by liquid scintillation counting and inhibition curves were analysed using a four-parameter logistic equation. IC50 values were converted to Ki values with the Cheng-Prusoff equation using a KD value derived from saturation binding studies.

Adenosine receptor A1 = molecular target: T1, Adenosine receptor A1 (Homo sapiens, UniProt P30542); assay: Adenosine Receptor Binding Assay
T1 sequence (P30542 whole entry): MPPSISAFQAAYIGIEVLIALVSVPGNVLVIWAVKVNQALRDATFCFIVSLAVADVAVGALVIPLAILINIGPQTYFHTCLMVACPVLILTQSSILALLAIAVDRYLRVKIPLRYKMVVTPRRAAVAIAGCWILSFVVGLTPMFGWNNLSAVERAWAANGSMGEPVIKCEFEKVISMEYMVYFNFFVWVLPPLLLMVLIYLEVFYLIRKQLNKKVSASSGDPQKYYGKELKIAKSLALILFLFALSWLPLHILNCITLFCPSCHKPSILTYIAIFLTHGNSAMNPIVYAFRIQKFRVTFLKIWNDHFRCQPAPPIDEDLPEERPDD
Method: as §1

Chain of Adenosine receptor A2a (P29274 whole entry): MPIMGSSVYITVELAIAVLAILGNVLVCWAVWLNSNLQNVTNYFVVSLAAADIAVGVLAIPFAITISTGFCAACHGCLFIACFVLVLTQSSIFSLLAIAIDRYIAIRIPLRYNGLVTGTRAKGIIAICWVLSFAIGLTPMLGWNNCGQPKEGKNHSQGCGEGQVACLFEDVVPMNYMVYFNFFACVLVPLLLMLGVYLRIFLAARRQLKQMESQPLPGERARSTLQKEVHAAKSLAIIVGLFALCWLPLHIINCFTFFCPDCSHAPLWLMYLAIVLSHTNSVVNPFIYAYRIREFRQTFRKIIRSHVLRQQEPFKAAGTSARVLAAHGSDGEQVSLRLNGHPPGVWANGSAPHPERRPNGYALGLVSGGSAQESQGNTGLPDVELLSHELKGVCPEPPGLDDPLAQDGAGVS

`Cc1cc(-c2c(-c3ccccc3)nc(N)n3c(=O)n(Cc4ncc[nH]4)nc23)cc(C)n1` [US20230271964, Example 1-24] was tested, and the Ki (Adenosine receptor A2a) was 0.631 nM and the Ki (Adenosine receptor A1) was 25.1 nM.
